Assay results published in patent publication US10953100B2, “Compounds and therapeutic uses thereof” (priority 2015, dated 2021).

Molecular target: Anti-alpha galactosyl IgG antibody
Assay: ELISA assay: streptavidin-captured biotin compound, binding of anti-alpha galactosyl IgG antibody
Parameters: species or system human
Conditions: geometric mean with standard error in brackets; streptavidin plate, anti-alpha galactosyl IgG 0.5 μg/mL; read-out: Concentration at half maximal binding

Compound	EC50
CC(=O)NC1C(OCCCNC(=O)CCOCCOCCOCCOCCNC(=O)COc2cc(OCC(=O)NCCOCCOCCOCCOCCC(=O)NCCCOC3OC(CO)C(OC4OC(CO)C(O)C(OC5OC(CO)C(O)C(O)C5O)C4O)C(O)C3NC(C)=O)cc(-c3cc(C(=O)NCCNC(=O)CCCCC4SCC5NC(=O)NC54)c(OCC(=O)NCCOCCOCCOCCOCCC(=O)NCCCOC4OC(CO)C(OC5OC(CO)C(O)C(OC6OC(CO)C(O)C(O)C6O)C5O)C(O)C4NC(C)=O)cc3OCC(=O)NCCOCCOCCOCCOCCC(=O)NCCCOC3OC(CO)C(OC4OC(CO)C(O)C(OC5OC(CO)C(O)C(O)C5O)C4O)C(O)C3NC(C)=O)c2)OC(CO)C(OC2OC(CO)C(O)C(OC3OC(CO)C(O)C(O)C3O)C2O)C1O (stereo not shown) [Example 51]	0.0197 µM
CC(=O)N[C@H]1[C@H](OCCCNC(=O)COc2cc(OCC(=O)NCCCO[C@@H]3O[C@H](CO)[C@@H](O[C@@H]4O[C@H](CO)[C@H](O)[C@H](O[C@H]5O[C@H](CO)[C@H](O)[C@H](O)[C@H]5O)[C@H]4O)[C@H](O)[C@H]3NC(C)=O)cc(-c3cc(C(=O)NCCNC(=O)CCCC[C@@H]4SC[C@@H]5NC(=O)N[C@@H]54)c(OCC(=O)NCCCO[C@@H]4O[C@H](CO)[C@@H](O[C@@H]5O[C@H](CO)[C@H](O)[C@H](O[C@H]6O[C@H](CO)[C@H](O)[C@H](O)[C@H]6O)[C@H]5O)[C@H](O)[C@H]4NC(C)=O)cc3OCC(=O)NCCCO[C@@H]3O[C@H](CO)[C@@H](O[C@@H]4O[C@H](CO)[C@H](O)[C@H](O[C@H]5O[C@H](CO)[C@H](O)[C@H](O)[C@H]5O)[C@H]4O)[C@H](O)[C@H]3NC(C)=O)c2)O[C@H](CO)[C@@H](O[C@@H]2O[C@H](CO)[C@H](O)[C@H](O[C@H]3O[C@H](CO)[C@H](O)[C@H](O)[C@H]3O)[C@H]2O)[C@@H]1O [Example 9]	0.0101 µM
CC(=O)NC1C(OCCCNC(=O)CCOCCOCCOCCOCCOCCOCCOCCOCCOCCOCCOCCOCCNC(=O)COc2cc(OCC(=O)NCCOCCOCCOCCOCCOCCOCCOCCOCCOCCOCCOCCOCCC(=O)NCCCOC3OC(CO)C(OC4OC(CO)C(O)C(OC5OC(CO)C(O)C(O)C5O)C4O)C(O)C3NC(C)=O)cc(-c3cc(OCC(=O)NCCOCCOCCOCCOCCOCCOCCOCCOCCOCCOCCOCCOCCC(=O)NCCCOC4OC(CO)C(OC5OC(CO)C(O)C(OC6OC(CO)C(O)C(O)C6O)C5O)C(O)C4NC(C)=O)cc(C(=O)NCCNC(=O)CCOCCOCCOCCOCCOCCOCCOCCOCCOCCOCCOCCOCCNC(=O)CCCCC4SCC5NC(=O)NC54)c3)c2)OC(CO)C(OC2OC(CO)C(O)C(OC3OC(CO)C(O)C(O)C3O)C2O)C1O (stereo not shown) [Example 57]	0.0154 µM

The remaining lines, values ahead:

EC50	Compound
0.0288 µM	CC(=O)N[C@H]1[C@H](OCCCNC(=O)COc2ccc(C(=O)NCCNC(=O)CCCC[C@@H]3SC[C@@H]4NC(=O)N[C@@H]43)cc2)O[C@H](CO)[C@@H](O[C@@H]2O[C@H](CO)[C@H](O)[C@H](O[C@H]3O[C@H](CO)[C@H](O)[C@H](O)[C@H]3O)[C@H]2O)[C@@H]1O [Example 8, 4-(2-((3-(((2R,3R,4R,5S,6R)-3-Acetamido-5-(((2S,3R,4S,5S,6R)-3,5-dihydroxy-6-(hydroxymethyl)-4-(((2R,3R,4S,5R,6R)-3,4,5-trihydroxy-6-(hydroxymethyl)tetrahydro-2H-pyran-2-yl)oxy)tetrahydro-2H-pyran-2-yl)oxy)-4-hydroxy-6-(hydroxymethyl)tetrahydro-2H-pyran-2-yl)oxy)propyl)amino)-2-oxoethoxy)-N-(2-(5-((3aS,4S,6aR)-2-oxohexahydro-1H-thieno[3,4-d]imidazol-4-yl)pentanamido)ethyl)benzamide]
0.0118 µM	CC(=O)NC1C(OCCCNC(=O)CCOCCOCCOCCOCCNC(=O)COc2cccc(C(=O)NCCNC(=O)CCOCCOCCOCCOCCOCCOCCOCCOCCOCCOCCOCCOCCNC(=O)CCCCC3SCC4NC(=O)NC43)c2)OC(CO)C(OC2OC(CO)C(O)C(OC3OC(CO)C(O)C(O)C3O)C2O)C1O (stereo not shown) [Example 19]
0.0213 µM	CC(=O)NC1C(OCCCNC(=O)CCCNC(=O)CCOCCOCCOCCOCCNC(=O)COc2cc(OCC(=O)NCCOCCOCCOCCOCCC(=O)NCCCC(=O)NCCCOC3OC(CO)C(OC4OC(CO)C(O)C(OC5OC(CO)C(O)C(O)C5O)C4O)C(O)C3NC(C)=O)cc(-c3cc(OCC(=O)NCCOCCOCCOCCOCCC(=O)NCCCC(=O)NCCCOC4OC(CO)C(OC5OC(CO)C(O)C(OC6OC(CO)C(O)C(O)C6O)C5O)C(O)C4NC(C)=O)cc(C(=O)NCCNC(=O)CCCCC4SCC5NC(=O)NC54)c3)c2)OC(CO)C(OC2OC(CO)C(O)C(OC3OC(CO)C(O)C(O)C3O)C2O)C1O (stereo not shown) [Example 59]
0.0115 µM	CC(=O)NC1C(OCCCNC(=O)COc2ccc(-c3cc(OCC(=O)NCCCOC4OC(CO)C(OC5OC(CO)C(O)C(OC6OC(CO)C(O)C(O)C6O)C5O)C(O)C4NC(C)=O)cc(C(=O)NCCNC(=O)CCOCCOCCOCCOCCOCCOCCOCCOCCOCCOCCOCCOCCNC(=O)CCCCC4SCC5NC(=O)NC54)c3)cc2)OC(CO)C(OC2OC(CO)C(O)C(OC3OC(CO)C(O)C(O)C3O)C2O)C1O (stereo not shown) [Example 15]
